These results are taken from ChEMBL document CHEMBL1201862, “PubChem BioAssay data set” (2004).

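How tested: cells in 96-well plates exposed to compound for 48 hours at five concentrations. GI50 is the concentration that inhibits growth by half.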 Calls of active or inactive are those of the source. Rule as the data show it: active = GI50 up to about 1.1 µM and inactive = higher. Some results are limits rather than exact numbers.

Holding throughout (assay): NCI anticancer screen, dose series, 48 h
For test [1], the system named is HCT-15.
The subject of test [2] is LOX IMVI.
Test [3] relates to HOP-62.
Test [4] relates to UO-31.
Test [5] has as its system PC-3.
For test [6], the system named is RXF 393.
Test [7] has as its system UACC-257.
Test [8] deals with 786-0.
Test [9] relates to K562.
Test [10] has as its system HL-60.
Test [11] deals with SK-MEL-28.
Test [12] deals with SK-MEL-2.
Test [13] relates to U-251.
Test [14] deals with Hs-578T.
Test [15] has as its system CCRF-CEM.
Test [16] concerns HOP-92.
Test [17] relates to NCI-H460.
The subject of test [18] is MOLT-4.
Test [19] has as its system EKVX.

For `CC(C)(C)OC(=O)CN1CCNCCN(CC(=O)OC(C)(C)C)CCNCC1`, the GI50 was more than 100 µM in [1]; 86.7 µM (inactive) in test [2]; > 100 µM (inactive) in test [3]; > 100 µM (inactive) in [4]; > 100 µM (inactive) in test [5]; > 100 µM (inactive) in [6]. Also, the GI50 in [7] was > 100 µM (inactive); in test [8] it was > 100 µM (inactive); in [9], 47 µM (inactive); in test [10] it was 36.2 µM (inactive); in test [11], > 100 µM (inactive); in [12], > 100 µM (inactive). In addition, the GI50 in [13] is 78.2 µM (inactive); in test [14], > 100 µM (inactive); in [15], 57 µM (inactive); in test [16] it was > 100 µM (inactive); in test [17], 63.2 µM (inactive); in [18], 64.7 µM (inactive). Besides, in test [19], the GI50 is > 100 µM (inactive).
Consider `COc1cccc(/C=C2/Sc3scc(-c4ccccc4)[n+]3C2=O)c1O`, for which the GI50 in test [1] is 13.6 µM; in test [2] it was 16.2 µM (inactive); in [3] it was 23.8 µM (inactive); in test [4], 13.3 µM (inactive); in test [5], 32.1 µM (inactive); in test [6] it was 14.4 µM (inactive). Besides, the GI50 is 19.7 µM (inactive) in [7]; 15.2 µM (inactive) in test [8]; 11.9 µM (inactive) in test [10]; 17.3 µM (inactive) in test [11]; 23.3 µM (inactive) in [12]; 19.6 µM (inactive) in test [13]. The GI50 in test [14] is 42.7 µM (inactive); in test [15] it was 4.9 µM (inactive); in test [16] it was 15.3 µM (inactive); in [17] it was 17.3 µM (inactive); in test [18], 16.1 µM (inactive); in test [19] it was 19.2 µM (inactive).
Consider `CC(=O)OCc1nc(C#N)c(N)o1`, for which the GI50 is more than 100 µM in test [1]; > 100 µM (inactive) in test [2]; > 100 µM (inactive) in [3]; > 100 µM (inactive) in test [4]; > 100 µM (inactive) in [5]; > 100 µM (inactive) in test [6]. For the same compound, the GI50 in [7], in test [8], in test [9], in test [10], in [11] and in [12] was > 100 µM (inactive) throughout. In addition, the GI50 in test [13], in [14], in test [15], in [16], in [17] and in test [18] was > 100 µM (inactive) each time. Moreover, in test [19], the GI50 was > 100 µM (inactive).
Take `CC1(C)CC(=O)C(=CNC(=O)c2ccncc2)C(=O)C1`: the GI50 in test [1] is more than 100 µM; in test [2], > 100 µM (inactive); in test [3], > 100 µM (inactive); in [4], > 100 µM (inactive); in test [5], > 100 µM (inactive); in test [6], > 100 µM (inactive). Moreover, the GI50 in test [7] is > 100 µM (inactive); in test [8] it was > 100 µM (inactive); in test [10], 71.3 µM (inactive); in test [11], > 100 µM (inactive); in test [12], > 100 µM (inactive); in test [13], > 100 µM (inactive). Besides, the GI50 in test [14], in test [15], in [16], in [17], in test [18] and in test [19] was > 100 µM (inactive) in each case.
